Measurements as given in patent US20210068395A1, “METHODS OF APPLYING ONE OR MORE CERTAIN HETEROARYL-1,2,4-TRIAZOLE AND HETEROARYL-TETRAZOLE COMPOUNDS TO CONTROL DAMAGE ON PLANTS, PROPAGATION MATERIAL THEREOF, AND PLANT DERIVED PRODUCTS” (SYNGENTA CROP PROTECTION AG, priority 2018, published 2021).

Columns and labels:
Assay type in all cases: in vivo
[1] = tested on: Myzus persicae (Green Peach Aphid); assay: Myzus persicae systemic activity; conditions: 144 h, test rate 24 ppm, roots of pea seedlings in test solution, 6 days
Experimental: Roots of pea seedlings infested with an aphid population of mixed ages were placed directly into aqueous test solutions prepared from 10,000 DMSO stock solutions. The samples were assessed for mortality 6 days after placing seedlings into test solutions.

[2] = tested on: Thrips tabaci (Onion thrips); assay: Thrips tabaci feeding/contact activity; conditions: foliar, 144 h, application rate 200 ppm, sunflower leaf discs, 6 days after infestation, read-out: control in at least one of the two categories (mortality or anti-feeding)
Experimental: Sunflower leaf discs were placed on agar in 24-well microtiter plates and sprayed with aqueous test solutions prepared from 10,000 ppm DMSO stock solutions. After drying the leaf discs were infested with a thrips population of mixed ages. The samples were assessed for mortality, and anti-feeding 6 days after infestation.

[3] = tested on: Chrysodeixis includens (Soybean Looper); assay: Chrysodeixis includens larvicide, feeding/contact; conditions: 120 h, test rate 50 ppm, L2 larvae on soybean leaves, 5 days after infestation, read-out: control in at least one of the two categories (mortality or growth inhibition)
Experimental: Soybean plants were treated in a spray chamber, cut off and placed into petri dishes containing wet filter paper. 1 d after application leaves were infested with 5 L2 larvae and covered with a fabric filter and plastic lids. 5 days after infestation the samples were assessed for mortality and growth inhibition.

[4] = tested on: Chilo suppressalis (Striped Stem Borer); assay: Chilo suppressalis larvicide, feeding/contact; conditions: 120 h, test rate 200 ppm, L2 larvae on sprayed rice plants, 5 days after application
Experimental: Rice plants were treated in a spray chamber, cut off and placed into petri dishes containing wet filter paper. 10 L2 larvae were infested and covered up with a cotton filter and a lid. 5 days after application samples were assessed for mortality.

[5] = tested on: Aedes aegypti (Yellow Fever Mosquito); assay: whole plant or invertebrate; conditions: test rate 200 ppm, adult females, mortality assessed at 24 and 48 hours
Experimental: (§1) Test solutions, at an application rate of 200 ppm in ethanol, were applied to 12 well tissue culture plates. Once the deposits were dry, five, two to five day old adult female Aedes aegypti were added to each well, and sustained with a 10% sucrose solution in a cotton wool plug. Assessment of knockdown was made one hour after introduction, and mortality was assessed at 24 and 48 hours after introduction.

[6] = tested on: Anopheles stephensi (Indian Malaria Mosquito); assay: Anopheles stephensi adult contact on treated plates; conditions: test rate 200 ppm, adult females, mortality assessed at 24 and 48 hours
Experimental: as §1, with “Anopheles stephensi” for “Aedes aegypti”

[7] = tested on: German cockroaches, Blattella germanica; assay: Cockroach N3 contact bioassay; conditions: 72 h, test rate 100 ppm, third nymphal stage, sprayed, 3 days
Experimental: (§2) Ten third nymphal stage German cockroaches, Blattella germanica, were placed in a 250 ml plastic drinking cup along with ca. 1 g of compressed rabbit food, and retained with a section of netting. Experimental compounds are diluted to 1000 ppm w/v in acetone, then subsequently to 100 ppm w/v in a 0.1% Tween solution in de-ionised water. 1 ml of the experimental solution is sprayed with a Potter tower directly through the retaining net onto the cockroach nymphs. A damp cotton wool ball is placed on top of the retaining net, and the cups held at 24° C. and ambient humidity. Assessment of mortality is made three days after application.

[8] = tested on: house flies, Musca domestica; assay: House fly adult contact bioassay; conditions: 72 h, test rate 100 ppm, adult females, sprayed, 3 days
Experimental: as §2, with “adult female house flies, Musca domestica, are” for “third nymphal stage German cockroaches, Blattella germanica, were”, “a sugar cube,” for “ca. 1 g of compressed rabbit food,”, “adult house flies.” for “cockroach nymphs.”

[9] = tested on: German cockroaches, Blattella germanica; assay: Cockroach bait bioassay; conditions: 72 h, test rate 1000 ppm in peanut butter bait, adults, 3 days
Experimental: The experimental compound is diluted in acetone to 1000 ppm w/v. 1 ml of this solution is added to 1 g of smooth peanut butter in a 15 ml glass vial and thoroughly mixed. This mixture is left in a fume cupboard for 24 hours until all the acetone has evaporated. It is then mixed again to ensure a homogeneous distribution of the experimental compound with a concentration of 1000 ppm w/w.
Ten adult male and ten adult female German cockroaches, Blattella germanica, are placed in a plastic arena approximately 20 cm in diameter. Also placed in each arena are a simple harbourage constructed from concertinaed card, and a water source. After the cockroaches have acclimatised for 24 hours the glass vial containing 1 g of the treated bait is introduced.
Assessment of cockroach mortality is made 3 days after bait introduction.

**Q.** What does the source list for `CC(c1ncnn1-c1ncccn1)N(C)C(=O)c1cc(C(F)(F)F)cc(C(F)(F)F)c1` (centres unmarked) [Compound 1]?
**A.** mortality at 24 ppm [1]: ≥ 80%; percent control (mortality, anti-feedant effect or growth inhibition) at 200 ppm [2]: ≥ 80%; percent control (mortality or growth inhibition) at 50 ppm [3]: ≥ 80%; mortality at 200 ppm [4]: ≥ 80%

**Q.** Which mortality at 24 ppm [1] does the source give for `CC(c1ncnn1-c1ncccn1)N(CC1CC1)C(=O)c1cc(C(F)(F)F)cc(C(F)(F)F)c1` (centres unmarked) [Compound 3] here?
**A.** Its mortality at 24 ppm is ≥ 80%.

**Q.** And the percent control (mortality, anti-feedant effect or growth inhibition) at 200 ppm [2]?
**A.** Its percent control (mortality, anti-feedant effect or growth inhibition) at 200 ppm is ≥ 80%.

**Q.** And the percent control (mortality or growth inhibition) at 50 ppm [3]?
**A.** Its percent control (mortality or growth inhibition) at 50 ppm is ≥ 80%.

**Q.** What about the mortality at 200 ppm [4] of the same compound?
**A.** Its mortality at 200 ppm is ≥ 80%.

**Q.** And the mortality at 200 ppm [5]?
**A.** The mortality at 200 ppm was ≥ 60%.

**Q.** What about the mortality at 200 ppm [6] of the same compound?
**A.** Its mortality at 200 ppm is ≥ 60%.

**Q.** What about the mortality at 100 ppm [7] of the same compound?
**A.** Its mortality at 100 ppm is ≥ 80%.

**Q.** And the mortality at 100 ppm [8]?
**A.** The mortality at 100 ppm was ≥ 80%.

**Q.** What about the mortality at 1000 ppm [9] of the same compound?
**A.** The mortality at 1000 ppm was ≥ 80%.

**Q.** What does the source list for `CC(NC(=O)c1cc(C(F)(F)F)cc(C(F)(F)F)c1)c1ncnn1-c1ncccn1` (centres unmarked) [Compound 4]?
**A.** percent control (mortality, anti-feedant effect or growth inhibition) at 200 ppm [2]: ≥ 80%; mortality at 100 ppm [7]: ≥ 80%; mortality at 100 ppm [8]: ≥ 80%; mortality at 1000 ppm [9]: ≥ 80%
